The source of these data is US11384381B2, “Reaction accelerating agent” (Kikkoman Corporation, priority 2016, dated 2022).

Assay [1] deals with CFP-DH4 (A1cOX). Nature of the assay: HbA1c detection reaction completed with excess A1cOX (Example 4). The format is biochemical. Conditions: 0.04% (w/v) compound, 5.3 mg/ml CFP-DH4 (excess), blood cells 10.4% HbA1c, pH 6.5, 37° C. The protocol:
In this Example, the amount of change in absorbance when an excess amount of A1cOX is used and HbA1c detection reaction was completed is determined.
A reagent for HbA1c measurement having the following composition was prepared, and the measurement of HbA1c was carried out using Bio Majesty JCA-BMI650 (manufactured by JEOL Ltd.).
(§1) Blood cells (10.4% HbA1c (NGSP value))
(§2) 30 mM MOPS-NaOH buffer solution, pH 6.5
0.2% (w/v) n-dodecyl-β-D-maltoside (manufactured by Dojindo Laboratories)
(§3) 10 U/ml peroxidase PEO-301 (Toyobo Co., Ltd.)
(§4) 0.023 mM 10-(carboxymethylaminocarbonyl)-3,7-bis(dimethylamino)phenothiazine sodium (DA-67, manufactured by Wako Pure Chemical Industries, Ltd.)
0.04% (w/v) of the compound of Comparative Example 2 (Wako Pure Chemical Industries, Ltd.), any one compound of the present invention (all from Tokyo Chemical Industry Co., Ltd. except for Acid Yellow 34 from MP Biomedicals, LLC), or compound-free (Comparative Example 1) ion-exchange water as shown in Table 1 (Second Reagent-A) 10 mM MOPS-NaOH buffer solution, pH 6.5 5.3 mg/ml CFP-DH4 (A cOX)
8 μl of the sample diluted 51-fold with ion-exchange water was added to 96 μl of the first reagent-A, and the mixture was incubated at 37° C. for 5 minutes. Then, 24 μl of the second reagent-A was added thereto, and the quantitative reaction of hydrogen peroxide resulting from the oxidation of the β-chain amino terminus of HbA1c was allowed to progress at 37° C. for 5 minutes. The absorbance (A694 and A751) of the reaction solution for light at wavelengths of 694 nm and 751 nm was measured over time for 10 minutes after the mixing of the diluted sample with the first reagent-A to determine the value subtracting of A751 from A694, i.e., the value A694/751. Subsequently, ΔA was calculated by subtracting, from A694/751, the value of (104/128) times A694/751 4.8 minutes after mixing the diluted sample with the first reagent-A. Incidentally, 4.8 minutes after the mixing of the diluted sample with the first reagent-A represents the time immediately before the addition of the second reagent-A. ΔA 9 minutes and 10 minutes after the mixing of the diluted sample with the first reagent (ΔA9min and ΔA10min) are shown in Table 1.
In other words, it can be recognized that the quantitative reaction of HbA1c, i.e., the quantitative reaction of hydrogen peroxide resulting from the oxidation of HbA1c, was completed in 10 minutes after the mixing of the diluted sample with the first reagent-A. Accordingly, in Examples 4 and 5, ΔA10min in each Comparative Example or the present invention was defined as ΔA when 100% of the quantitative reaction of HbA1c progressed under each condition (ΔA100%).

The test system of assay [2] is CFP-DH4 (A1cOX). Put plainly: Acceleration of HbA1c detection reaction with small amount of A1cOX (Example 5). The format is biochemical. Conditions: HbA1c detection reaction, ΔA/ΔA100%, 0.04% (w/v) compound, 1.1 mg/ml CFP-DH4. The protocol: Next, in this Example, the degree of acceleration of HbA1c detection reaction by the compound of the present invention was determined using a small amount of A1cOX.
A reagent for HbA1c measurement having the following composition was prepared, and the measurement of HbA1c was carried out using Bio Majesty JCA-BM1650 (manufactured by JEOL Ltd.).
as §1, §2
0.2% (w/v) n-dodecyl-3-D-maltoside (manufactured by Dojindo Laboratories)
as §3, §4
0.04% (w/v) of the compound of Comparative Example 2, any one compound of the present invention, or compound-free (Comparative Example 1) ion-exchange water as shown in Table 2
10 mM MOPS-NaOH buffer solution, pH 6.5
1.1 mg/ml CFP-DH4 (A cOX)
8 μl of the sample diluted 51-fold with ion-exchange water was added to 96 μl of the first reagent, and the mixture was incubated at 37° C. for 5 minutes. Then, 24 μl of the second reagent-B was added thereto, and the quantitative reaction of hydrogen peroxide resulting from the oxidation of the β-chain amino terminus of HbA1c was allowed to progress at 37° C. for 5 minutes. The absorbance ([…] and A751) of the reaction solution for light at wavelengths of 694 nm and 751 nm was measured over time for 10 minutes after the mixing of the diluted sample with the first reagent to determine the value of subtraction of A751 from A694, i.e., the value A694/751. Subsequently, ΔA was calculated by subtracting, from A694/751, the value of (104/128) times A694/751 4.8 minutes after the mixing of the diluted sample with the first reagent. Incidentally, […] after the mixing of the diluted sample with the first reagent represents the time immediately before the addition of the second reagent-B.
Next, ΔA calculated in this Example was divided by ΔA100% defined in Example 4 to calculate the degree of progression of HbA1c detection reaction. The degree of progression of HbA1c detection reaction 7.5 and 10 minutes after the mixing of the diluted sample with the first reagent (in other words, 2.5 and 5 minutes after the addition of the second reagent-B) is shown in Table 2.

For the compound `O=C([O-])C1=NN(c2ccc(S(=O)(=O)[O-])cc2)C(=O)C1N=Nc1ccc(S(=O)(=O)[O-])cc1.[Na+].[Na+].[Na+]` (stereo not shown) [Tartrazine, reference compound], the ΔA9 min in the assay with CFP-DH4 (A1cOX) [1] (change in A694-A751 9 minutes after mixing sample with first reagent) is 0.032. This compound had a ΔA10 min in the assay on CFP-DH4 (A1cOX) [1] (change in A694-A751 10 minutes after mixing sample with first reagent, defined as ΔA100%) of 0.032. Moreover, the “Degree of progression of reaction (%) after 7.5 minutes” value in the assay on CFP-DH4 (A1cOX) [2] (2.5 minutes after addition of second reagent, not added: 51) stood at 38%. Besides, in the assay with CFP-DH4 (A1cOX) [2] (5 minutes after addition of second reagent, not added: 73), the “Degree of progression of reaction (%) after 10 minutes” value is 62%.
